In ChEMBL document CHEMBL1201862, “PubChem BioAssay data set” (2004):
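Growth conditions: 96-well plates. Treatment: test compound, 48 hours, 5 concentrations. Analysis: linear interpolation between bracketing concentrations; unreached endpoints set to highest concentration. Here, GI50 denotes the concentration required for 50% inhibition of growth.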 Activity calls are given as the source filed them. Rule as the data show it: active = GI50 up to about 1.1 µM and inactive = higher.

Tests used:
Test in all cases: NCI anticancer screen, dose series, 48 h
SF-539 = tested on: SF-539
LXFL 529 = tested on: LXFL 529
UACC-62 = tested on: UACC-62
NCI-H23 = tested on: NCI-H23
CCRF-CEM = tested on: CCRF-CEM
OVCAR-5 = tested on: OVCAR-5
EKVX = tested on: EKVX
SK-OV-3 = tested on: SK-OV-3
HL-60 = tested on: HL-60
MOLT-4 = tested on: MOLT-4
786-0 = tested on: 786-0
U-251 = tested on: U-251
LOX IMVI = tested on: LOX IMVI
SK-MEL-28 = tested on: SK-MEL-28
SW-620 = tested on: SW-620
RXF 393 = tested on: RXF 393
MDA-MB-231 = tested on: MDA-MB-231
MCF7 = tested on: MCF7
MDA-MB-435 = tested on: MDA-MB-435
MDA-N = tested on: MDA-N

Measured: GI50

CCCCCCCCCCCCCCCC(=O)OCC1OC(n2cc(F)c(=O)[nH]c2=O)C(N)C(O)C1O (stereo unspecified)
inactive: SF-539 19.4 µM | LXFL 529 18.9 µM | UACC-62 16.2 µM | NCI-H23 19.7 µM | CCRF-CEM 16 µM | OVCAR-5 27 µM | EKVX 18.8 µM | SK-OV-3 22.4 µM | HL-60 19.5 µM | MOLT-4 22.8 µM | 786-0 19.1 µM | U-251 18.5 µM | LOX IMVI 17.4 µM | SK-MEL-28 16.9 µM | SW-620 16.7 µM

O=c1[nH]c(-c2ccccc2)nc2ccc(Cl)cc12
inactive: SF-539 > 100 µM | LXFL 529 29.4 µM | NCI-H23 77.4 µM | RXF 393 20 µM | OVCAR-5 > 100 µM | EKVX 54.7 µM | MOLT-4 34 µM | 786-0 60.8 µM | U-251 > 100 µM | SK-MEL-28 23.4 µM | SW-620 29.4 µM

COc1cc(-c2nccc3cc(OC)c(OC)cc23)ccc1O
inactive: SF-539 35.4 µM | LXFL 529 29.7 µM | UACC-62 30 µM | NCI-H23 32.4 µM | CCRF-CEM 38.5 µM | OVCAR-5 34.9 µM | EKVX 35.6 µM | SK-OV-3 68.2 µM | HL-60 17.7 µM | MOLT-4 29.2 µM | 786-0 78 µM | U-251 70.6 µM | LOX IMVI 36.6 µM | SK-MEL-28 > 100 µM | SW-620 55.2 µM

C=C(C)C(CC=C(C)C)Cc1c(O)cc(OC)c2c1OC(c1ccc(O)cc1O)C(O)C2=O (stereo unspecified)
inactive: SF-539 15.9 µM | MDA-MB-231 18.6 µM | UACC-62 16.2 µM | NCI-H23 17.9 µM | RXF 393 19 µM | MCF7 13.2 µM | CCRF-CEM 50.8 µM | OVCAR-5 17.7 µM | EKVX 16.3 µM | SK-OV-3 16.8 µM | HL-60 > 100 µM | MOLT-4 > 100 µM | 786-0 16.6 µM | U-251 14.5 µM | LOX IMVI 20 µM | SK-MEL-28 21.1 µM | SW-620 16.6 µM | MDA-MB-435 16.9 µM | MDA-N 14.9 µM

CCOC(=O)c1nnsc1NC(=O)NN
inactive: SF-539 > 100 µM | MDA-MB-231 25.4 µM | UACC-62 > 100 µM | NCI-H23 > 100 µM | RXF 393 > 100 µM | MCF7 > 100 µM | CCRF-CEM > 100 µM | OVCAR-5 > 100 µM | EKVX > 100 µM | SK-OV-3 > 100 µM | HL-60 > 100 µM | MOLT-4 > 10 µM | 786-0 89.3 µM | U-251 > 100 µM | LOX IMVI 82.2 µM | SK-MEL-28 > 100 µM | SW-620 > 100 µM | MDA-MB-435 > 100 µM | MDA-N > 100 µM

O=C(CC1C=Cc2ccccc2N1C(=O)c1ccccc1)c1ccccc1 (stereo unspecified)
inactive: SF-539 22.6 µM | MDA-MB-231 21.9 µM | UACC-62 11.7 µM | NCI-H23 23 µM | RXF 393 47.2 µM | MCF7 29.1 µM | CCRF-CEM 36.1 µM | OVCAR-5 25.5 µM | EKVX 12.6 µM | SK-OV-3 30.9 µM | HL-60 14 µM | MOLT-4 11.7 µM | 786-0 29.3 µM | U-251 23.1 µM | LOX IMVI 23.6 µM | SK-MEL-28 30.1 µM | SW-620 33.6 µM | MDA-MB-435 20.4 µM | MDA-N 16.1 µM

O=c1c(NCc2ccccc2)c(C2(c3ccccc3F)SCCCS2)c1=O
inactive: SF-539 > 100 µM | MDA-MB-231 > 100 µM | UACC-62 79.1 µM | NCI-H23 > 100 µM | RXF 393 > 100 µM | MCF7 > 100 µM | CCRF-CEM > 100 µM | OVCAR-5 > 100 µM | EKVX > 100 µM | SK-OV-3 > 100 µM | HL-60 29.2 µM | MOLT-4 54 µM | 786-0 > 100 µM | U-251 > 100 µM | LOX IMVI > 100 µM | SK-MEL-28 > 100 µM | SW-620 > 100 µM | MDA-MB-435 19.5 µM | MDA-N 41.9 µM

CNC(=O)N1CN(c2ccccc2)C2(CCN(CCCC3(c4ccc(F)cc4)OCCO3)CC2)C1=O
inactive: SF-539 > 100 µM | MDA-MB-231 > 100 µM | UACC-62 > 100 µM | NCI-H23 > 100 µM | RXF 393 > 100 µM | MCF7 > 100 µM | CCRF-CEM > 100 µM | OVCAR-5 > 100 µM | EKVX > 100 µM | SK-OV-3 > 100 µM | HL-60 > 100 µM | MOLT-4 > 100 µM | 786-0 > 100 µM | U-251 > 100 µM | LOX IMVI > 100 µM | SK-MEL-28 > 100 µM | SW-620 > 100 µM | MDA-MB-435 > 100 µM | MDA-N > 100 µM
